Measurements reported in ChEMBL document CHEMBL4402510, “Caprazamycins: Promising lead structures acting on a novel antibacterial target MraY” (Eur J Med Chem, 2019).
Converted amounts (≈) assume the structure as drawn.

Legend:
[1] = tested on: Escherichia coli; assay: Antibacterial activity against Escherichia coli expressing MraY; assay type: functional, organism-based
[2] = tested on: Mycolicibacterium phlei; assay: Antibacterial activity against Mycobacterium phlei; assay type: functional
[3] = tested on: Mycobacterium tuberculosis; assay: Antibacterial activity against Mycobacterium tuberculosis H37Rv; assay type: functional
[4] = Antibacterial activity against Mycobacterium avium subsp. avium ATCC 25291; assay type: functional
[5] = tested on: Mycobacterium avium subsp. paratuberculosis; assay: Antibacterial activity against Mycobacterium avium subsp. paratuberculosis ATCC 43015; assay type: functional
[6] = tested on: Staphylococcus aureus; assay: Antibacterial activity against methicillin resistant Staphylococcus aureus No. 5; assay type: functional
[7] = tested on: Mycobacterium tuberculosis; assay: Antibacterial activity against Mycobacterium tuberculosis Kurono; assay type: functional
[8] = tested on: Mycobacterium tuberculosis; assay: Antibacterial activity against Mycobacterium tuberculosis JCM 6384; assay type: functional
[9] = tested on: Mycolicibacterium smegmatis; assay: Antibacterial activity against Mycobacterium smegmatis ATCC 607; assay type: functional
[10] = tested on: Mycolicibacterium vaccae; assay: Antibacterial activity against Mycobacterium vaccae ATCC 15483; assay type: functional
[11] = tested on: Staphylococcus aureus; assay: Antibacterial activity against Staphylococcus aureus FDA 209P; assay type: functional
[12] = tested on: Staphylococcus aureus; assay: Antibacterial activity against methicillin resistant Staphylococcus aureus MS16526; assay type: functional
[13] = tested on: Bacillus subtilis; assay: Antibacterial activity against Bacillus subtilis PCI 219; assay type: functional
[14] = tested on: Escherichia coli; assay: Antibacterial activity against Escherichia coli K-12; assay type: functional

N/C=N/C[C@H]1O[C@@H](OC[C@H]2O[C@@H](n3ccc(=O)[nH]c3=O)[C@H](O)[C@@H]2O)[C@H](O)[C@@H]1O
IC50 [1]: 30 µM

NC[C@H]1O[C@@H](OC[C@H]2O[C@@H](n3ccc(=O)[nH]c3=O)C[C@@H]2O)[C@H](O)[C@@H]1O
IC50 [1]: 80 µM

CCNC[C@H]1O[C@@H](OC[C@H]2O[C@@H](n3ccc(=O)[nH]c3=O)[C@H](O)[C@@H]2O)[C@H](O)[C@@H]1O
IC50 [1]: 150 µM

CN(C)C[C@H]1O[C@@H](OC[C@H]2O[C@@H](n3ccc(=O)[nH]c3=O)[C@H](O)[C@@H]2O)[C@H](O)[C@@H]1O
IC50 [1]: > 1000 µM

C=CCCCCCCCCCOC(=O)C1=CCN(C)[C@@H]([C@H](O[C@@H]2O[C@H](CN)[C@@H](O)[C@H]2O)[C@H]2O[C@@H](n3ccc(=O)[nH]c3=O)[C@H](O)[C@@H]2O)C(=O)N1C
MIC [2]: 50 µg/mL (≈ 70.4 µM) | MIC [3]: 12.5 µg/mL (≈ 17.6 µM) | MIC [4]: 12.5 µg/mL (≈ 17.6 µM) | MIC [5]: 6.25 µg/mL (≈ 8.81 µM) | MIC [6]: > 100 µg/mL | MIC [7]: 12.5 µg/mL (≈ 17.6 µM) | MIC [8]: 12.5 µg/mL (≈ 17.6 µM) | MIC [9]: 25 µg/mL (≈ 35.2 µM) | MIC [10]: 50 µg/mL (≈ 70.4 µM) | MIC [11]: 1.56 µg/mL (≈ 2.2 µM) | MIC [12]: > 100 µg/mL

CCCCCCNC[C@H]1O[C@@H](OC[C@H]2O[C@@H](n3ccc(=O)[nH]c3=O)[C@H](O)[C@@H]2O)[C@H](O)[C@@H]1O
IC50 [1]: 130 µM

NC[C@H]1O[C@@H](O[C@H](CO)[C@H]2O[C@@H](n3ccc(=O)[nH]c3=O)[C@H](O)[C@@H]2O)[C@H](O)[C@@H]1O
IC50 [1]: 425 µM

CCCCCCCCCCCCCCCC(=O)O[C@H]1CN(C)[C@@H]([C@H](O)[C@H]2O[C@@H](n3ccc(=O)[nH]c3=O)[C@H](O)[C@@H]2O)C(=O)N(C)[C@@H]1C(=O)O
MIC50 [1]: > 100 µg/mL

N=C(N)NC[C@H]1O[C@@H](OC[C@H]2O[C@@H](n3ccc(=O)[nH]c3=O)[C@H](O)[C@@H]2O)[C@H](O)[C@@H]1O
IC50 [1]: 25 µM

CCCCCCCCCCCCCCCCCNC(=O)C1=CCN(C)[C@@H]([C@H](O[C@@H]2O[C@H](CN)[C@@H](O)[C@H]2O)[C@H]2O[C@@H](n3ccc(=O)[nH]c3=O)[C@H](O)[C@@H]2O)C(=O)N1C
MIC [2]: > 100 µg/mL | MIC [3]: 3.13 µg/mL (≈ 3.94 µM) | MIC [4]: 1.56 µg/mL (≈ 1.96 µM) | MIC [5]: 6.25 µg/mL (≈ 7.86 µM) | MIC [7]: 6.25 µg/mL (≈ 7.86 µM) | MIC [8]: 6.25 µg/mL (≈ 7.86 µM) | MIC [9]: 1.56 µg/mL (≈ 1.96 µM) | MIC [10]: > 100 µg/mL

NC[C@H]1O[C@@H](OC[C@@H]2CC[C@H](n3ccc(=O)[nH]c3=O)O2)[C@H](O)[C@@H]1O
IC50 [1]: 120 µM

CCCCCCCCCCCCCCCC(=O)O[C@H]1CN(C)[C@@H]([C@@H](C)O[C@@H]2O[C@H](CN)[C@@H](O)[C@H]2O)C(=O)N(C)[C@@H]1C(=O)O
MIC50 [1]: > 100 µg/mL

CNC[C@H]1O[C@@H](OC[C@H]2O[C@@H](n3ccc(=O)[nH]c3=O)[C@H](O)[C@@H]2O)[C@H](O)[C@@H]1O
IC50 [1]: 45 µM

CC(=O)NC[C@H]1O[C@@H](OC[C@H]2O[C@@H](n3ccc(=O)[nH]c3=O)[C@H](O)[C@@H]2O)[C@H](O)[C@@H]1O
IC50 [1]: > 1000 µM

CCCCCCCOc1ccc(NC(=O)C2=CCN(C)[C@@H]([C@H](O[C@@H]3O[C@H](CN)[C@@H](O)[C@H]3O)[C@H]3O[C@@H](n4ccc(=O)[nH]c4=O)[C@H](O)[C@@H]3O)C(=O)N2C)cc1
MIC [2]: 3.13 µg/mL (≈ 4.19 µM) | MIC [3]: 0.78 µg/mL (≈ 1.04 µM) | MIC [4]: 0.78 µg/mL (≈ 1.04 µM) | MIC [5]: 0.2 µg/mL (≈ 0.268 µM) | MIC [6]: 25 µg/mL (≈ 33.5 µM) | MIC [7]: 0.78 µg/mL (≈ 1.04 µM) | MIC [8]: 0.1 µg/mL (≈ 0.134 µM) | MIC [9]: 0.78 µg/mL (≈ 1.04 µM) | MIC [10]: 6.25 µg/mL (≈ 8.37 µM) | MIC [11]: 25 µg/mL (≈ 33.5 µM) | MIC [12]: < 0.2 µg/mL | MIC [13]: 50 µg/mL (≈ 67 µM) | MIC [14]: 3.13 µg/mL (≈ 4.19 µM)

CC(C)NC[C@H]1O[C@@H](OC[C@H]2O[C@@H](n3ccc(=O)[nH]c3=O)[C@H](O)[C@@H]2O)[C@H](O)[C@@H]1O
IC50 [1]: 180 µM
